Data reported in patent US10457686B2, “[1,2,3]triazolo[4,5-D]pyrimidine derivatives” (Hoffmann-La Roche Inc., priority 2016, dated 2019).

Tests used:
human CB1 = human CB1 (Homo sapiens (Human), UniProt P21554); experiment: Radioligand binding assay, human CNR1 (CB1) receptor, [3H]-CP-55,940; settings: membrane preparations of HEK cells expressing human CNR1; 1.5 nM [3H]-CP-55,940
Procedure: (§1) Radioligand Binding Assay
(§2) The affinity of the compounds of the invention for cannabinoid receptors was determined using recommended amounts of membrane preparations (PerkinElmer) of human embryonic kidney (HEK) cells expressing the human CNR1 or CNR2 receptors in conjunction with 1.5 or 2.6 nM [3H]-CP-55,940 (Perkin Elmer) as radioligand, respectively. Binding was performed in binding buffer (50 mM Tris, 5 mM MgCl2, 2.5 mM EDTA, and 0.5% (wt/vol) fatty acid free BSA, pH 7.4 for CB1 receptor and 50 mM Tris, 5 mM MgCl2, 2.5 mM EGTA, and 0.1% (wt/vol) fatty acid free BSA, pH 7.4 for CB2 receptor) in a total volume of 0.2 mL for 1 h at 30° C. shaking. The reaction was terminated by rapid filtration through microfiltration plates coated with 0.5% polyethylenimine (UniFilter GF/B filter plate; Packard). Bound radioactivity was analyzed for Ki using nonlinear regression analysis (Activity Base, ID Business Solution, Limited), with the Kd values for [^3H]CP55,940 determined from saturation experiments.

human CB2 = human CB2 (Homo sapiens (Human), UniProt P34972); experiment: Radioligand binding assay, human CNR2 (CB2) receptor, [3H]-CP-55,940; settings: membrane preparations of HEK cells expressing human CNR2; 2.6 nM [3H]-CP-55,940
Chain of human CB2 (P34972 whole entry): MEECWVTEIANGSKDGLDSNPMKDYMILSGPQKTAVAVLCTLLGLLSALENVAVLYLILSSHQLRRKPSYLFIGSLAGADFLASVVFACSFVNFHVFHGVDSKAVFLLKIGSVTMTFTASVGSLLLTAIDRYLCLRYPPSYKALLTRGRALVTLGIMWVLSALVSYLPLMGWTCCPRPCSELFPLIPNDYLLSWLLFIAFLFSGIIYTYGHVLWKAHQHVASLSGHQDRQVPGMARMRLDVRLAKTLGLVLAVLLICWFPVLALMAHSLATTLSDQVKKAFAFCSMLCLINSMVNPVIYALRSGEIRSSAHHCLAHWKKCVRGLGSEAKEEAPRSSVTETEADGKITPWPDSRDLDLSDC
Procedure: as §1, §2
The compounds according to formula (I) have an activity in the above assay (Ki) particularly of 0.5 nM to 10 μM, more particularly of 0.5 nM to 3 μM and most particularly of 0.5 nM to 100 nM.

Chain of human CB1 (P21554 whole entry): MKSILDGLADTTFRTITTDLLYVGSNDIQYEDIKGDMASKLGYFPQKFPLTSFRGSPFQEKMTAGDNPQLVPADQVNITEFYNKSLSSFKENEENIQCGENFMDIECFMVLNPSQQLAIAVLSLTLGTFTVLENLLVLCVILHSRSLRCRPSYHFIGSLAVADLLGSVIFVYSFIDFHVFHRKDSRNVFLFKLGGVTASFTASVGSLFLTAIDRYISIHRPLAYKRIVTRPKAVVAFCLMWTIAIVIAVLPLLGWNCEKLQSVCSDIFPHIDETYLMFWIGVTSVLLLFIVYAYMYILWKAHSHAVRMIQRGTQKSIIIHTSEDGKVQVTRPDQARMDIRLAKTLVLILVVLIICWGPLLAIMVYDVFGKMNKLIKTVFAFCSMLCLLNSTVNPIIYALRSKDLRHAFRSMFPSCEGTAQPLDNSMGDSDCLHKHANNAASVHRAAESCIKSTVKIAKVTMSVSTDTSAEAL

SMILES	Ki (human CB1) [µM]	Ki (human CB2) [µM]
C#Cc1cccc(C2(C(F)(F)F)N=N2)c1Cn1nc2nc(C(F)(F)c3ccccc3)nc(N3CC[C@H](O)C3)c2n1 [Example 7, (3S)-1-[5-[Difluoro(phenyl)methyl]-2-[[2-ethynyl-6-[3-(trifluoromethyl)diazirin-3-yl]phenyl]methyl]triazolo[4,5-d]pyrimidin-7-yl]pyrrolidin-3-ol]	5.46	0.358
C#Cc1cccc(C2(C(F)(F)F)N=N2)c1Cn1nc2nc(C(C)(C)C)nc(N3CCC(F)(F)C3)c2n1 [Example 5, 5-tert-Butyl-7-(3,3-difluoropyrrolidin-1-yl)-2-[[2-ethynyl-6-[3-(trifluoromethyl)diazirin-3-yl]phenyl]methyl]triazolo[4,5-d]pyrimidine]	0.583	0.0814
C#CCCC1(CCNC(=O)c2nonc2Cn2nc3nc(C(C)(C)C)nc(N4CC[C@H](O)C4)c3n2)N=N1 [Example 3, 4-({5-tert-Butyl-7-[(3S)-3-hydroxypyrrolidin-1-yl]-2H-[1,2,3]triazolo[4,5-d]pyrimidin-2-yl}methyl)-N-{2-[3-(but-3-yn-1-yl)-3H-diaziren-3-yl]ethyl}-1,2,5-oxadiazole-3-carboxamide]	> 10	2.86
C#Cc1cccc(C2(C(F)(F)F)N=N2)c1Cn1nc2nc(C(F)(F)c3ccccc3)nc(N3CCC(F)(F)C3)c2n1 [Example 4, 5-[Difluoro(phenyl)methyl]-7-(3,3-difluoropyrrolidin-1-yl)-2-[[2-ethynyl-6-[3-(trifluoromethyl)diazirin-3-yl]phenyl]methyl]triazolo[4,5-d]pyrimidine]	> 10	1.07
C#Cc1cccc(C2(C(F)(F)F)N=N2)c1Cn1nc2nc(C(C)(C)C)nc(N3CC[C@H](O)C3)c2n1 [Example 6, (3S)-1-[5-tert-Butyl-2-[[2-ethynyl-6-[3-(trifluoromethyl)diazirin-3-yl]phenyl]methyl]triazolo[4,5-d]pyrimidin-7-yl]pyrrolidin-3-ol]	> 10	0.0992
C#CCCC1(CCNC(=O)c2nonc2Cn2nc3nc(C(C)(C)C)nc(N4CCC(F)(F)C4)c3n2)N=N1 [Example 2, 4-{[5-tert-Butyl-7-(3,3-difluoropyrrolidin-1-yl)-2H-[1,2,3]triazolo[4,5-d]pyrimidin-2-yl]methyl}-N-{2-[3-(but-3-yn-1-yl)-3H-diaziren-3-yl]ethyl}-1,2,5-oxadiazole-3-carboxamide]	> 10	0.932
